Results: article PMC5500991, “Substituted arylsulphonamides as inhibitors of perforin-mediated lysis” (European Journal of Medicinal Chemistry, 2017)
Counter-ions that a name gives are not always drawn.

What was measured:
[1] = molecular target: T1, perforin delivered by KHYG1 NK cells (Homo sapiens, UniProt P14222); test: KHYG1 inhibitory assay: lysis of 51Cr-labelled K562 target cells by KHYG1 NK cells; type: cell-based; details: 51Cr-labelled K562 target cells co-incubated with KHYG1 human NK cells, vs untreated control, n = 4
T1 construct: The use of whole NK cells to deliver perforin provides a more realistic model of conditions in vivo; endogenous in cells; host or cells: KHYG1 human NK cells (effector); K562 leukemia target cells
T1 sequence (P14222 22-555): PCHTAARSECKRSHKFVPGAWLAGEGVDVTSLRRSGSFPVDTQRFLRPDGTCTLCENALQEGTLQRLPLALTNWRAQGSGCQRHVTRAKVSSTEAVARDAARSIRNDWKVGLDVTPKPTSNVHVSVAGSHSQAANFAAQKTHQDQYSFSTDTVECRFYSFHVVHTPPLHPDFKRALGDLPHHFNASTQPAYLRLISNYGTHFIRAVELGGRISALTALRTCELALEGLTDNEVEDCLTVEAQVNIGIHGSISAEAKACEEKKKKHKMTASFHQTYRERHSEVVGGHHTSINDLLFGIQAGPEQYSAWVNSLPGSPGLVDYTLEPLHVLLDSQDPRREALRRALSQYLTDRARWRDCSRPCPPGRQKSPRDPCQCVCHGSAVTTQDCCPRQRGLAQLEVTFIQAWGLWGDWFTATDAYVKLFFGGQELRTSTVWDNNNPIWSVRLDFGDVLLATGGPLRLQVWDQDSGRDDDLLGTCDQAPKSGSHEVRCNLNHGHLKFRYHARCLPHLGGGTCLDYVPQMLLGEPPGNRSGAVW
Procedure: The inhibitory function is then determined by identifying the number of untreated or inhibitor treated effector cells required to kill the same number of targets.

[2] = Toxicity to KHYG1 NK cells (Trypan blue exclusion); type: cell-based, human; details: human, viability of KHYG1 NK cells after 24 h, n = 3
Procedure: The toxicity assay was carried out in exactly the same manner as the killing assay above, but instead of adding the labelled K562 target cells, 100 μL of RPMI 0.1% BSA was added. Cells were incubated for 4 h at 37 °C and then washed ×3 in RPMI + 0.1% BSA. […] Trypan blue was added to each well. Viable (clear) cells and total (clear + blue) cells were counted, and the percentage of viable cells was calculated compared to DMSO treated cell control (% viability).

[3] = Solubility of the sodium salt in water; type: physicochemical; details: sodium salt in water at room temperature
Procedure: The compound was dissolved in water until it was no longer soluble in order to achieve a supersaturated concentration. The suspensions were sonicated for 15 min. prior to centrifugation at 13,000 revolutions per minute (rpm) for 6 minutes. Supernatants were removed and then recentrifuged prior to dilution of at least two fold in water to avoid precipitation during HPLC analysis.

| SMILES | melting point [°C] | further results |
| --- | --- | --- |
| CN1Cc2cc(-c3ccc(-c4cc(NS(=O)(=O)c5ccccn5)ccc4F)s3)ccc2C1=O [Compound 17, N-{4-Fluoro-3-[5-(2-methyl-1-oxo-2,3-dihydro-1H-isoindol-5-yl)-2-thienyl]phenyl}-2-pyridinesulfonamide] | – | inhibition at 10 µM [1]: 0%; viability at 24 h, 10 µM [2]: 91.4 ± 6.5% |
| CN1Cc2cc(-c3ccc(-c4cncc(NS(=O)(=O)c5ccc(S(C)(=O)=O)cc5)c4)s3)ccc2C1=O [Compound 57, Sodium (5-(5-(2-methyl-1-oxoisoindolin-5-yl)thiophen-2-yl)pyridin-3-yl)((4-(methylsulfonyl)phenyl)sulfonyl)amide] | – | inhibition at 10 µM [1]: 0%; viability at 24 h, 10 µM [2]: 90 ± 7.8% |
| Cc1ccc(S(=O)(=O)Nc2ccccn2)cc1-c1ccc(-c2ccc3c(c2)CN(C)C3=O)s1 [Compound 16, Sodium (4-methyl-3-(5-(2-methyl-1-oxoisoindolin-5-yl)thiophen-2-yl)phenylsulfonyl)(pyridin-2-yl)amide] | – | inhibition at 10 µM [1]: 0%; viability at 24 h, 10 µM [2]: 96.1 ± 6% |
| CN1Cc2cc(-c3ccc(-c4cncc(NS(=O)(=O)c5cccs5)c4)s3)ccc2C1=O [Compound 68, N-(5-(5-(2-Methyl-1-oxoisoindolin-5-yl)thiophen-2-yl)pyridin-3-yl)thiophene-2-sulfonamide] | 300 to 304 | – |
| CN1Cc2cc(-c3ccc(-c4cncc(NS(=O)(=O)c5ccc(Cl)c(Cl)c5)c4)s3)ccc2C1=O [Compound 30, 3,4-Dichloro-N-(5-(5-(2-methyl-1-oxoisoindolin-5-yl)thiophen-2-yl)pyridin-3-yl)benzenesulfonamide] | 256 to 259 | – |
| CN1Cc2cc(-c3ccc(-c4cncc(NS(=O)(=O)c5ccccc5OC(F)(F)F)c4)s3)ccc2C1=O [Compound 41, N-(5-(5-(2-Methyl-1-oxoisoindolin-5-yl)thiophen-2-yl)pyridin-3-yl)-2-(trifluoromethoxy)benzenesulfonamide] | 251 to 254 | – |
| Cc1ccc(S(=O)(=O)Nc2cncc(-c3ccc(-c4ccc5c(c4)CN(C)C5=O)s3)c2)cc1Cl [Compound 63, 3-Chloro-4-methyl-N-(5-(5-(2-methyl-1-oxoisoindolin-5-yl)thiophen-2-yl)pyridin-3-yl)benzenesulfonamide] | 277 to 279 | – |
| COc1ncc(-c2ccc(-c3ccc4c(c3)CN(C)C4=O)s2)cc1NS(=O)(=O)c1ccc(F)cc1F [Compound 12, 2,4-Difluoro-N-(2-methoxy-5-(5-(2-methyl-1-oxoisoindolin-5-yl)-thiophen-2-yl)pyridin-3-yl)benzenesulphonamide] | 224 to 227 | – |
| CCOC(=O)c1ccc(S(=O)(=O)Nc2cncc(-c3ccc(-c4ccc5c(c4)CN(C)C5=O)s3)c2)cc1 [Compound 54, Ethyl 4-(N-(5-(5-(2-methyl-1-oxoisoindolin-5-yl)thiophen-2-yl)pyridin-3-yl)sulfamoyl)benzoate] | 272 to 275 | – |
| CN1Cc2cc(-c3ccc(-c4cncc(NS(=O)(=O)c5cc(C(F)(F)F)cc(C(F)(F)F)c5)c4)s3)ccc2C1=O [Compound 47, N-(5-(5-(2-Methyl-1-oxoisoindolin-5-yl)thiophen-2-yl)pyridin-3-yl)-3,5-bis(trifluoromethyl)benzenesulphonamide] | 299 to 302 | inhibition at 10 µM [1]: 0%; viability at 24 h, 10 µM [2]: 90.2 ± 3.4% |
| Cc1ncsc1S(=O)(=O)Nc1cncc(-c2ccc(-c3ccc4c(c3)CN(C)C4=O)s2)c1 [Compound 74, 4-Methyl-N-(5-(5-(2-methyl-1-oxoisoindolin-5-yl)thiophen-2-yl)pyridin-3-yl)thiazole-5-sulphonamide] | 277 to 280 | – |
| CN1Cc2cc(-c3ccc(-c4cncc(NS(=O)(=O)c5ccc(C(F)(F)F)cc5Cl)c4)s3)ccc2C1=O [Compound 64, 2-Chloro-N-(5-(5-(2-methyl-1-oxoisoindolin-5-yl)thiophen-2-yl)pyridin-3-yl)-4-(trifluoromethyl)benzenesulfonamide] | 292 to 295 | – |
| CN1Cc2cc(-c3ccc(-c4cncc(NS(=O)(=O)c5ccc(-c6cnco6)cc5)c4)s3)ccc2C1=O [Compound 70, N-(5-(5-(2-Methyl-1-oxoisoindolin-5-yl)thiophen-2-yl)pyridin-3-yl)-4-(oxazol-5-yl)benzenesulfonamides] | 278 to 281 | – |
| CN1Cc2cc(-c3ccc(-c4cnc(F)c(NS(=O)(=O)c5ccccn5)c4)s3)ccc2C1=O [Compound 20, N-(2-Fluoro-5-(5-(2-methyl-1-oxoisoindolin-5-yl)thiophen-2-yl)pyridin-3-yl)pyridine-2-sulfonamide] | – | Solubility [3]: significantly improved |
| CN1Cc2cc(-c3ccc(-c4cncc(N(C)S(=O)(=O)c5ccc(F)cc5F)c4)s3)ccc2C1=O [Compound 6, 2,4-Difluoro-N-methyl-N-(5-(5-(2-methyl-1-oxoisoindolin-5-yl)thiophen-2-yl)pyridin-3-yl)-benzenesulphonamide] | 200 to 202 | – |

Second part, led by results:

| melting point [°C] | SMILES | further results |
| --- | --- | --- |
| 291 to 295 | CN1Cc2cc(-c3ccc(-c4cncc(NS(=O)(=O)c5cccc(Cl)c5)c4)s3)ccc2C1=O [Compound 28, 3-Chloro-N-(5-(5-(2-methyl-1-oxoisoindolin-5-yl)thiophen-2-yl)pyridin-3-yl)benzenesulfonamide] | – |
| 295 to 298 | CN1Cc2cc(-c3ccc(-c4cncc(NS(=O)(=O)c5ccc(I)cc5)c4)s3)ccc2C1=O [Compound 36, 4-Iodo-N-(5-(5-(2-methyl-1-oxoisoindolin-5-yl)thiophen-2-yl)pyridin-3-yl)benzenesulfonamides] | – |
| > 300 | CN1Cc2cc(-c3ccc(-c4cncc(NS(=O)(=O)c5ccsc5)c4)s3)ccc2C1=O [Compound 69, N-(5-(5-(2-Methyl-1-oxoisoindolin-5-yl)thiophen-2-yl)pyridin-3-yl)thiophene-3-sulfonamide] | – |
| 292 to 294 | CN1Cc2cc(-c3ccc(-c4cncc(NS(=O)(=O)c5cccc(F)c5)c4)s3)ccc2C1=O [Compound 23, 3-Fluoro-N-(5-(5-(2-methyl-1-oxoisoindolin-5-yl)thiophen-2-yl)pyridin-3-yl)benzenesulfonamide] | – |
| 300 to 303 | CN1Cc2cc(-c3ccc(-c4cncc(NS(=O)(=O)c5ccccc5)c4)s3)ccc2C1=O [Compound 21, N-(5-(5-(2-Methyl-1-oxoisoindolin-5-yl)thiophen-2-yl)pyridin-3-yl)benzenesulphonamide] | – |
| 230 to 232 | CN1Cc2cc(-c3ccc(-c4cncc(NS(=O)(=O)c5cccc(OC(F)(F)F)c5)c4)s3)ccc2C1=O [Compound 42, N-(5-(5-(2-Methyl-1-oxoisoindolin-5-yl)thiophen-2-yl)pyridin-3-yl)-3-(trifluoromethoxy)benzenesulfonamide] | – |
| 254 to 258 | COc1ccc(S(=O)(=O)Nc2cncc(-c3ccc(-c4ccc5c(c4)CN(C)C5=O)s3)c2)cc1 [Compound 39, 4-Methoxy-N-(5-(5-(2-methyl-1-oxoisoindolin-5-yl)thiophen-2-yl)pyridin-3-yl)benzenesulfonamide] | – |
| 283 to 286 | CN1Cc2cc(-c3ccc(-c4cncc(NS(=O)(=O)c5cccnc5)c4)s3)ccc2C1=O [Compound 67, N-(5-(5-(2-Methyl-1-oxoisoindolin-5-yl)thiophen-2-yl)pyridin-3-yl)pyridine-3-sulfonamide] | – |
| 302 to 306 | CN1Cc2cc(-c3ccc(-c4cccc(S(=O)(=O)Nc5ccccn5)c4)s3)ccc2C1=O (as salt: sodium) [Compound 14, sodium ((3-(5-(2-methyl-1-oxoisoindolin-5-yl)thiophen-2-yl)phenyl)sulfonyl)(pyridin-2-yl)amide] | – |
